From publication PMC12003167 (Nature, 2025)

T1: chanoclavine synthase (EasC) from Claviceps fusiformis (EasCCf) (Claviceps fusiformis, UniProt A8C7R6)
T1 sequence (A8C7R6 1-479): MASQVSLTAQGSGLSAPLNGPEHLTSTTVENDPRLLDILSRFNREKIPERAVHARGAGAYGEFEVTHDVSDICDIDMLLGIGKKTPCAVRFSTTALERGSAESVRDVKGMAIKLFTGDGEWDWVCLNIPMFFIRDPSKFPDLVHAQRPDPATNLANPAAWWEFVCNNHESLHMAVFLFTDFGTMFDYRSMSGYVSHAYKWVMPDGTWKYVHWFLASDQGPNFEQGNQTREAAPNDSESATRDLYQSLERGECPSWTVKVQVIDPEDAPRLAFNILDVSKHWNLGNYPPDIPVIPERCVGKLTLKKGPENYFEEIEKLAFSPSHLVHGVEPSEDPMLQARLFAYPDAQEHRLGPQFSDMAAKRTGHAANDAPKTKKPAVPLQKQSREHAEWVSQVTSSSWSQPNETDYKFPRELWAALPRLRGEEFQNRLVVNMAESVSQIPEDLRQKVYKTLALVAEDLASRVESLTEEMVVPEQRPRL


Columns and labels:
[1] = target: T1, chanoclavine synthase (EasC) from Claviceps fusiformis (EasCCf); experiment: PCC conversion assay by LC–MS; assay type: biochemical
cryo-EM structure = target: the molecule itself; experiment: cryo-EM structure

Row | Molecule | IC50 [1] [µM] | stoichiometry N (cryo-EM structure)
1 | NO [NH2OH, hydroxylamine] | 720 | –
2 | chanoclavine synthase (EasC) from Claviceps fusiformis (enzyme) MASQVSLTAQGSGLSAPLNGPEHLTSTTVENDPRLLDILSRFNREKIPERAVHARGAGAYGEFEVTHDVSDICDIDMLLGIGKKTPCAVRFSTTALERGSAESVRDVKGMAIKLFTGDGEWDWVCLNIPMFFIRDPSKFPDLVHAQRPDPATNLANPAAWWEFVCNNHESLHMAVFLFTDFGTMFDYRSMSGYVSHAYKWVMPDGTWKYVHWFLASDQGPNFEQGNQTREAAPNDSESATRDLYQSLERGECPSWTVKVQVIDPEDAPRLAFNILDVSKHWNLGNYPPDIPVIPERCVGKLTLKKGPENYFEEIEKLAFSPSHLVHGVEPSEDPMLQARLFAYPDAQEHRLGPQFSDMAAKRTGHAANDAPKTKKPAVPLQKQSREHAEWVSQVTSSSWSQPNETDYKFPRELWAALPRLRGEEFQNRLVVNMAESVSQIPEDLRQKVYKTLALVAEDLASRVESLTEEMVVPEQRPRL | – | 2
